In patent US20220340899A1, “STEREOSELECTIVE PH RESPONSIVE PEPTIDE DENDRIMERS FOR NUCLEIC ACID TRANSFECTION” (UNIVERSITÄT BERN, priority 2019, published 2022):

Legend:
[1] = test system: HT-1080, PC-3, MCF-7, SH-SY5Y and Caco-2 cell lines; assay: siRNA transfection, GAPDH knock-down in five additional cell lines; format: cell-based; conditions: including SH-SY5Y and Caco-2
Protocol: siRNA Transfection and Protein Quantitation: HeLa, CHO, PC3, SH-SY5Y, Caco-2 and MCF-7 cells were seeded in TPP 96-well plates (Faust Laborbedarf AG, Schaffhausen) at 5×10^3 cells per well the day before transfection. The 96-well plates were coated with poly-L-Lysine (Sigma aldrich, Buchs, CH) for 1 h and dried under a flow of air in the fumehood at RT before plating HEK-293 and HT-1080 at 5×10^3 cells per well the day before transfection. Cells were always used in their exponential phase for transfection and with a number of passages between 3 to 20. The siRNA transfection complexes were formed in OptiMEM by mixing siRNA (1-20 μmol, 0.02-0.4 μL from a 50 μM Milli-Q water solution in 6.25 μL OptiMEM) with peptide dendrimers (N/P ratio of 1-100, 21-420 μmol, 0.1-3.5 μl from a 1 mg/mL Milli-Q water solution in 6.25 μL OptiMEM) or L2000 (w/w ratio of 0.5:1-2:1, 0.0665-0.266 μg, 0.0665-0.266 μL from the 1 mg/mL commercial solution in 6.25 μL OptiMEM) at room temperature for 30 minutes (12.5 μL, concentration of 80-1600 nM siRNA and 1.68-33.6 μM i.e. 12-240 μg/mL peptide dendrimers or 5.32-21.28 μg/mL L2000). […] Briefly, medium was removed, cells were lysed with 200 μL cold lysis buffer, 2-10 μL of lysis buffer from each well was taken to a new 96 well plate containing 90 μL Master Mix and fluorescence measured at λex=560 nm and λem=590 nm on a Tecan Infinite M1000 Pro plate reader.

[2] = test system: cells; assay: Cell viability by AlamarBlue assay after transfection; format: cell-based; conditions: in transfection experiments
Protocol: Cell Viability by AlamarBlue® Assay: Cells were transfected in TPP 96-well plates as previously described. Following transfections, the medium was removed and replaced with 10% AlamarBlue® (Thermo Fisher Scientific, Reinach, CH) in DMEM supplemented with 10% FCS. Cells were incubated for 4-24 h at 37° C. in a humidified atmosphere in 5% carbon dioxide. Then, plates were measured on a Tecan Infinite M1000 Pro plate reader at λex=560 nm and λem=590 nm and value normalized to the one of untreated cells.

Substance	GADPH knock-down in five additional cell lines [1]	cell toxicity / cell viability [2]
(kl)8(kkl)4(kll)2kllll [DMH18]	effectively transfected all five cell lines	without significant toxicity to cells
(kl)8(kkl)4(kll)2kk(C16)k(C16) [DMH13]	effectively transfected all five cell lines	without significant toxicity to cells
